Source: patent US12061143B2, “Methods for rapid determinations of antibiotic susceptibility phenotypes” (priority 2018, dated 2024)

How the values were obtained:
Type in all cases: cell-based
[1] = test system: Lab-strain E. coli (ATCC); test: FAST with low bacterial counts (500 counts by flow cytometry); conditions: each antibiotic at MIC, ¼ MIC and 1/16 MIC, bars beyond the 99% confidence line
Description: FIG. 14. Bactericidal Antibiotic-induced changes for low counts of E. coli. Lab-strain E. coli (ATCC) ASTs performed with 500 counts by flow cytometry with gentamicin (Gen), penicillin G (PenG), and tetracycline (Tet) each at MIC, ¼ MIC and 1/16 MIC. This strain is seen to be sensitive to all three antibiotics, as the bars extend beyond the 99% confidence line.
While both morphology and growth inhibition occur upon exposure to antibiotics near the minimum inhibitory concentration, standard ASTs are based on growth inhibition alone. The presence of bacteria is clearly indicated by the presence of a particular scattering peak in the multidimensional histogram. This is much more sensitive and less affected by background than is shifts in a peak resulting from morphological changes upon antibiotic exposure. […] For even a few hundred counts, the presence of a bacterial population can be readily assessed with flow cytometry, but error bars and statistical distances must be properly determined relative to no-antibiotic controls. When too few counts for triplicate runs exist, control and each antibiotic exposure histograms are treated as probability distributions that are representative of the true mother distribution for each condition. Each histogram is binned (either adaptively with probability binning or using regular bins) and the distribution of data within each bin is determined. […]

E. coli strain Mu14S = test: FAST flow cytometry AST with PB-sQF, bacteria recovered from 10% human blood
Method: Varied counts of bacteria were mixed with human blood and diluted 1:9 (v/v) with bacterial growth medium to desired bacterial concentrations (<10 CFU/mL final solution) and plated to independently confirm CFU/mL blood. Saponin was immediately added and the samples shaken for 15 minutes to achieve selective blood cell lysis. After hemolysis, bacteria were spun down and washed with PBS. The pellets were resuspended in bacterial growth medium and incubated at 37° C. for 2 hours, followed by another 3-hour incubation with antibiotics at various fractions of the minimum inhibition concentration (MIC, as independently determined by microdilution from the pure starting culture, Table 1) for sensitive strains or at the CLSI MIC resistant breakpoints^(12) for the highly resistant strains. Changes in scattered light signals largely resulting from bacterial growth inhibition were monitored by flow cytometry, and the difference in the 2-D scatter histograms with and without antibiotic treatment was quantified with PB-sQF statistics.^(1) Using PB-sQF, distance was calculated for each antibiotic concentration relative to its own no-antibiotic control and expressed as “fold distance” relative to the 99% confidence limit distance between the no-antibiotic control and the sensitive breakpoint. This allowed comparison of fold distances among all samples as each is individually paired to its own control, as is each replicate.
To simulate a blood specimen from a patient with bacteremia, the isolates were grown, diluted to the desired CFU/mL in blood (ZenBio, Research Triangle Park, NC) and saponin was added to achieve the final diluted sample. Initial bacterial cultures were prepared using Luria-Bertani (LB) broth for (E. coli) or cation-adjusted Mueller-Hinton broth (CAMHB). The fresh bacterial cultures started from ˜0.05 optical density (OD) by inoculating a 6-mL fresh growth medium with overnight culture were grown in an incubator shaker (MaxQ 4000, Thermal Fisher Scientific, Waltham, MA) at 37° C. and 225 rpm. After the culture reached mid-log phase, bacteria were collected and diluted into ˜10 CFU/mL through serial 10-fold dilutions. Bacterial densities were determined by plating onto LB plates. The final 10-fold dilution was performed by adding 500 μL of 100 CFU/mL into 4500 μL of 10% human blood in medium.
A 2.5% (w/v) of saponin solution was prepared, sonicated (Branson 2510, Emerson, St. Louis, MO) for 20 minutes and spun down with a clinical centrifuge (Centrific Model 228, Fisher Scientific, Waltham, MA) for 4 minutes. The supernatant cleared of particulates was collected. 500 μL of 2.5% saponin was then added to the 5 mL of 10% human blood sample with ˜10 CFU/mL, described above and the mixtures were shaken at 300 rpm for 15 minutes at 37° C. After the saponin treatment, the bacteria were pelleted and washed with 2 mL of phosphate buffered saline (PBS) (Life Technologies, Carlsbad, CA) using a clinical centrifuge for 2 minutes. Bacterial growth medium (2.5 mL) was then added to the tube and incubated for 2 hours at 37° C. and 225 rpm.
After the 2-hour incubation, 500-μL aliquots of the suspension were added to each of 4 wells in a 12-well microtiter plate that contained 500 μL of growth medium with or without antibiotic at 2-fold of specified concentrations. The plate was then incubated at 37° C. for 3 hours. Bacteria were collected by centrifugation (Centrifuge 5417R, Eppendorf) and resuspended in 200 μL of PBS for flow cytometry detection. To ensure each clinical isolate was tested at its MIC values of the tested antibiotics, the initial bacterial cultures at the 1000 CFU/mL dilution were also tested for each experiment (FIGS. 4A-4F, 5A-5F, 7A-7F, 8A-8F, and 9A-9F), confirming that the antibiotic concentrations indeed inhibited bacterial growth.
Cytometric data were collected by BD LSRFortessa flow cytometer (Becton Dickinson, Franklin Lake, NY) equipped with a 100 mW, 488 nm laser for the scatter signal. […]

[2] = test system: 10% human blood samples without bacteria inoculation; test: Antibiotic-treated 10% human blood only control (no bacteria), flow cytometry; conditions: 10% human blood without bacteria, around the resistance breakpoints of Enterobacteriaceae
Method: FIGS. 6A-6D. Antibiotic-treated 10% human blood only results. Cytometric data with (FIG. 6A) Ampicillin (FIG. 6B) Tetracycline (FIG. 6C) Gentamicin. The greyscale plots are the no-antibiotic controls and the black contour plots are the antibiotic-treated data with the antibiotic concentration indicated at each plot. (FIG. 6D) PB-sQF results for FIGS. 6A-6C). […] For each antibiotic, the resistant breakpoints of Enterobacteriaceae are 16 μg/mL for tetracycline and gentamicin and 32 μg/mL for ampicillin.
This confirms that the gentamicin sensitivity of Mu14S observed after blood culture^(1) can also be observed on much shorter timescales with FAST. Overnight plating confirms that initial Mu14S counts were 3, 2, 5 and CFU/mL for tetracycline, gentamicin and ampicillin data after 10-fold dilution of the blood/bacteria mixture, corresponding to FAST being performed on whole blood samples containing ˜30, ˜20 and ˜50 CFU/mL. […] Thus, diluting bacterimic blood specimens 1:9 (v:v) directly into saponin-containing growth medium provides a path to ASTs within 8 hours from initial blood draw, with excellent results matching independent (36-44 hrs) MIC determinations from pure, overnight cultures (˜10^8 CFU/mL) that could only be initiated after (˜24 hr) positive blood culture.

Gentamicin
PB-sQF AST susceptibility at low counts [1]: sensitive | FAST antibiotic-induced scatter signal change (E. coli strain Mu14S; Mu14S treated at the MIC): exhibits growth inhibition | PB-sQF fold distance average versus the paired-control (E. coli strain Mu14S; Mu14S, 1×MIC, triplicate data): clear differences | scattered light histograms change [2]: do not significantly change
